Reference: patent US6706880B2 (Research Triangle Institute, priority 1990, dated 2004)
Where a name gives a salt, the structure may show the parent alone. Read-outs that look alike come from different tables or passages of the source.

Key:
dopamine transporter [1] = molecular target: dopamine transporter (UniProt P23977); assay type: binding
Text: (§1) Illustrative in vitro assays for binding are described in Boja et al Ann. NY Acad. Sci. 654:282-291 (1992), which is incorporated herein by reference in its entirety. […] Alternatively, the compounds may be analyzed by their ability to inhibit reuptake of a labelled neurotransmitter in a sample, in particular, in synaptosomes.

serotonin transporter = molecular target: T1, serotonin transporter (Rattus norvegicus, UniProt P31652); experiment: Inhibition of [3H]paroxetine radioligand binding at the serotonin transporter
T1 construct: from tissue
Text: as §1

[2] = molecular target: norepinephrine transporter (UniProt Q9WTR4); experiment: Inhibition of [3H]nisoxetine radioligand binding at the norepinephrine transporter
Text: as §1

dopamine transporter [3] = assay type: binding; settings: ratio of IC50 values, Table II
Text: as §1

[4] = read-out: DA IC50 for inhibition of radioligand binding, DA=[3H]WIN 35,428
[5] = 5-HT IC50 for inhibition of radioligand binding, 5-HT=[3H] paroxetine
[6] = IC50 5-HT [3H]-paroxatine, Table II
[7] = read-out: NEN IC50 for inhibition of radioligand binding, NEN=[3H] nisoxetine

T1 sequence (P31652 whole entry): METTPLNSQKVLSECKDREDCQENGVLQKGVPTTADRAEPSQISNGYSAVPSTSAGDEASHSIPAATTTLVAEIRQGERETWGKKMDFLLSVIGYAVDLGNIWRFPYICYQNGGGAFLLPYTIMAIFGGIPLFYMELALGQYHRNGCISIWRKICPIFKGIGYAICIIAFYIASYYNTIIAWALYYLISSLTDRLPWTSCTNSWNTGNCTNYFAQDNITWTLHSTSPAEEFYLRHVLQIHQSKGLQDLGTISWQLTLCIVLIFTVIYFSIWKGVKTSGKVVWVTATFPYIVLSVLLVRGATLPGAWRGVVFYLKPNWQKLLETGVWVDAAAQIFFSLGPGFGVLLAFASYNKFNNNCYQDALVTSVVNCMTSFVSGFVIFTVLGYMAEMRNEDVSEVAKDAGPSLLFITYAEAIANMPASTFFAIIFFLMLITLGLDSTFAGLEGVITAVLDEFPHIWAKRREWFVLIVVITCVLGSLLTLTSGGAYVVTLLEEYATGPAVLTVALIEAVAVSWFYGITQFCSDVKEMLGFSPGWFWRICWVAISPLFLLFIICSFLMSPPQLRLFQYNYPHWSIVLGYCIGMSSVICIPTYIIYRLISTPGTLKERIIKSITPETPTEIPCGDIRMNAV

## Cc1ccc([C@H]2C[C@@H]3CC[C@H]([C@H]2c2nn[nH]n2)N3C)cc1 (as salt: hydrochloride) [RTI-157, 3β-(4-Methylphenyl)-tropane-2β-tetrazole Hydrochloride]
other
  melting point: < 212 °C (dec.)

## Cc1cc([C@H]2[C@@H](c3ccc(Cl)cc3)C[C@@H]3CC[C@H]2N3C)on1 (as salt: hydrochloride) [RTI-165, 3β-(4-Chlorophenyl)-2β-(3-methylisoxazol-5-yl)tropane Hydrochloride]
other
  melting point: 235 °C (dec.)

## CN1[C@H]2CC[C@@H]1[C@@H](c1cc(-c3ccccc3)no1)[C@@H](c1ccc(Cl)cc1)C2 (as salt: hydrochloride) [RTI-4229-177, 3β-(4-Chlorophenyl)-2β-(3-phenylisoxazol-5-yl)tropane Hydrochloride]
other
  melting point: 287 °C

## CN1C2CCC1C(c1nnc(-c3ccccc3)s1)C(c1ccc(Cl)cc1)C2 (stereo not drawn) (as salt: hydrochloride) [RTI-4229-200, 3β-(4-Chlorophenyl)-2β-(S-phenyl-1,3,4-thiadiazol-2-yl)-tropane Hydrochloride]
other
  melting point: 165 to 170 °C

## CN1[C@H]2CC[C@@H]1[C@@H](C#N)[C@@H](c1ccc(Cl)cc1)C2 [RTI-161, 3β-(4-Chlorophenyl)-tropane-2β-nitrile]
Dopamine transporter [1]; read-out: IC50 DA [3H]-WIN 35,428, Table IV
  IC50: 13.1 ± 0.78 nM
Serotonin transporter; IC50 5-HT [3H]-paroxetine, Table IV
  IC50: 1890 ± 134 nM
[2]; read-out: IC50 NE [3H]-nisoxetine, Table IV
  IC50: 2520 ± 253 nM
other
  melting point: > 220 °C (dec.)

## CN1[C@H]2CC[C@@H]1[C@@H](c1nc3ccccc3s1)[C@@H](c1ccc(Cl)cc1)C2 [RTI-4229-202, 3β-(4-Chlorophenyl)-2β-(benzothiazol-2-yl)-tropane Hydrochloride]
Dopamine transporter [1]; [4]
  IC50: 1.37 nM
Dopamine transporter [1]; read-out: IC50 DA [3H]-WIN 35,428, Table II
  IC50: 1.37 ± 0.14 nM
Dopamine transporter [3]
  5-HT/DA Ratio: 817
  NE/DA Ratio: 294
Serotonin transporter; [5]
  IC50: 1120 nM
Serotonin transporter; [6]
  IC50: 1120 ± 120 nM
[2]; read-out: IC50 NE [3H]-nisoxetine, Table II
  IC50: 403 ± 30 nM
[2]; [7]
  IC50: 403 nM

## CN1[C@H]2CC[C@@H]1[C@@H](c1ncc(-c3ccccc3)s1)[C@@H](c1ccc(Cl)cc1)C2 [RTI-4229-219, 3β-(4-Chlorophenyl)-2β-(5-phenylthiazol-2-yl)-tropane Hydrochloride]
Dopamine transporter [1]; [4]
  IC50: 5.71 nM
Dopamine transporter [3]
  5-HT/DA Ratio: 1811
Serotonin transporter; [5]
  IC50: 10300 nM
Serotonin transporter; [6]
  IC50: 10300 nM
[2]; [7]
  IC50: 8560 nM
